Measured values published in patent US9404087B2, “Insulin producing cells derived from pluripotent stem cells” (Kadimastem Ltd., priority 2010, dated 2016).

How the values were obtained:
Format in all cases: cell-based
human insulin C-peptide = assay: Content of human insulin C-peptide by ELISA in cell fractions; conditions: EDTA added during re-aggregation (Table 2, Expt 3)
Experimental: On day 20, the medium used in step III of Example 2 was modified to adjust the glucose concentration to 5.5 mM (referred to herein as DM7). For isolation of EpCAM^+ cells by magnetic cell sorting (MACS technology, Miltenyi Biotec), a 10 cm-diameter plate was washed with PBS^−/− (no Ca^++, no Mg^++). Cells were then dissociated by treatment with Accutase (Stempro, 2.5 ml/10 cm plate), for 10 minutes at 37° C., and pipetting up and down. The cells were collected in DM7 and an aliquot counted in a NucleoCounter (New Brunswick). Cells were centrifuged at 1,500 rpm (350×g) for 5 minutes and re-suspended in MACS buffer (PBS^−/− with 0.5% BSA, 2 mM EDTA), using 0.3 ml for 50 million cells. Magnetic beads conjugated to anti-EpCAM antibodies (Miltenyi Biotec—CD326 pluripotent stem cells microbeads) were added (0.1 ml beads for 50 million cells). After 30 minutes at 4° C., the cells were washed once in 50 ml of MACS buffer, centrifuged, and finally re-suspended in 0.5 ml MACS buffer (for a maximum of 10^8 cells). […]
Aliquots of the Presort culture and of EpCAM-MACS-separated fractions (from step 7), as well as of re-aggregated clusters (step 8) were analyzed. The number of cells was counted, using the Nucleocounter. […] Human insulin mRNA was quantitated by RT-qPCR (Taq-Man, Applied Biosystems, Step One) using the TATA binding protein (TBP) gene as reference. […]

Human insulin mRNA = Human insulin mRNA by RT-qPCR with TBP as reference; conditions: EDTA added during the re-aggregation step
Experimental: Aliquots of the Presort culture and of EpCAM-MACS-separated fractions (from step 7), as well as of re-aggregated clusters (step 8) were analyzed. The number of cells was counted, using the Nucleocounter. After centrifugation at 350×g for 5 minutes, cell pellets were dissolved in M-PER (Mammalian protein extraction reagent, Pierce), typically using 0.1 ml M-PER for 2 million cells, and content of human insulin C-peptide was measured with an ELISA kit (Mercodia, Upsalh, Sweden, ultrasensitive c-peptide kit (minimal detection 5 pM) or Mercodia c-peptide ELISA (minimal detection 90 pM). Samples in M-PER were diluted 3 fold, or more in the kit buffer, and 20 μl of the ⅓ dilution were assayed. Results were expressed per mg total protein (as measured by Bradford assay) and per million cells (counted in a NucleoCounter). Other cell pellets were suspended in 0.7 ml buffer RLT (RNAeasy, Qiagen) per million cells, for RNA extraction. Human insulin mRNA was quantitated by RT-qPCR (Taq-Man, Applied Biosystems, Step One) using the TATA binding protein (TBP) gene as reference. In the same way, proteins and RNA were extracted from entire plates after scraping the cells with a rubber policeman. […]

human ES cells [1] = assay: Immunofluorescence for Pdx1 positive cells during differentiation
Experimental: On day 6, cells were washed with DMEM/F12, 2 mM glutamine, 1×PS, and medium changed to differentiation medium B1 (DMEM/F12, 2 mM glutamax (Invitrogen), 2 mg/ml BSA, 1% B27 supplement (In Vitrogen) 50 ng/ml human recombinant FGF10 (Preprotech), and 10 μM Forskolin (F-6886 from coleus forskohlii (SIGMA)). The cells were left two days in the same medium.
On day 8, the medium was changed to differentiation medium B2 i.e. medium B1 with addition of 2 μM fresh ATRA (All trans retinoic acid) for five days. Medium was changed every two days.
(§1) On day 13, medium was changed to DMEM/F12, Glutamine 2 mM, PS, 1×ITS supplement (Invitrogen), 2 mg/ml BSA, 5 μg/ml bovine fibronectin (Biological Industries Bet Ha'emek,), Nicotinamide 10 mM (SIGMA) and exendin-4, 5-50 ng/ml. Medium was changed every two days. Cells positive for C-peptide staining start to appear around day 19 of differentiation, but strong immunostaining for C-peptide appears at day 23 and positive islet like structures continue to form till day 50 and persist for at least 70 days. When the cells have differentiated more than 15-20 days, they can be further trypsinized and replated. On the second plating, islet-like structures appear 20-30 days after replating.
Performed as in Example 1. Goat polyclonal anti-human Pdx1/IPF1 (R&D) antibody at 1:100 for 2 hrs, (blocking at 5% BSA in PBS with Triton 0.1%) was used. […]

human ES cells [2] = assay: Immunostaining for C-peptide and glucagon in islet-like structures
Experimental: as §1
Cultures obtained as in Examples 1 and 2 were further cultured in ITS medium (as detailed in step III of Example 2) and were stained using polyclonal rabbit antibody to C-peptide (Acris) or monoclonal antibody (MAB 1975, Abcam) at dilution 1:200 overnight. To detect glucagon-produing cells, the cultures were also stained with goat polyclonal antibody against Glucagon (Santa Cruz N-17) at the concentration of 1:200 over night. The glucose transporter Glut2 was detected with mouse monoclonal Anti Glut-2 antibodies (R&D systems) used at the concentration of 1:200. […]

## O=C(O)CN(CCN(CC(=O)O)CC(=O)O)CC(=O)O [EDTA, reference compound]
Human insulin C-peptide
  effect on C-peptide content of re-aggregated cells: further increase
Human insulin mRNA
  effect on enrichment of insulin mRNA: increased

## CC1=C(/C=C/C(C)=C/C=C/C(C)=C/C(=O)O)C(C)(C)CCC1 [retinoic acid, All trans retinoic acid]
Human ES cells [1]; day 14, two days after end of retinoic acid treatment (2 μM ATRA with FGF10 and forskolin)
  cultured cells expressing Pdx1: about 50%

## exendin-4: maturation factor added to ITS medium at 5-50 ng/ml
Human ES cells [1]; 5-50 ng/ml, with nicotinamide, cell counting (data not shown)
  effect on the percentage of Pdx1 positive cells: positive effect
Human ES cells [2]; 5 ng/ml, after 60 days of differentiation (FIGS. 9A-B)
  total amount of cells positive for C-peptide versus control without exendin-4: sufficient to increase
Human ES cells [2]; day 60 (not shown)
  number of C-peptide/glucagon positive areas, 50 ng/ml relative to 5 ng/ml: 3 time more
